Test results reported in patent publication US6472348B1, “Pyridone derivatives and herbicides” (Kumiai Chemical Industry Co., Ltd., priority 1996, dated 2002).

Experiments:
Format in all cases: in vivo
barnyardgrass (Ec) [1] = assay: Test Example 1: herbicidal effects by paddy field soil treatment; conditions: 100 g of the active ingredient per 10 ares, 21st day after the application, index 0-5 of Table 47;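 note: grade of growth control; 5 = at least 90%; 4 = 70 to 90%; 3 = 50 to 70%; 2 = 30 to 50%; 1 = 10 to 30%; 0 = under 10%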
Summary of the method: (§1)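 Flooded paddy-soil pots (3 cm water) sown after puddling/leveling; treatment 100 g a.i./10 ares; greenhouse culture; herbicidal effect rated visually on a scoring scale at 21 d post-application.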

bulrush (Sc) = assay: as above; conditions: 100 g of the active ingredient per 10 ares, 21st day after the application, index 0-5 of Table 47;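 note: grade of growth control; 5 = at least 90%; 4 = 70 to 90%; 3 = 50 to 70%; 2 = 30 to 50%; 1 = 10 to 30%; 0 = under 10%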
Summary of the method: as §1

monochoria (Mo) = assay: as above; conditions: 100 g of the active ingredient per 10 ares, 21st day after the application, index 0-5 of Table 47;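 note: grade of growth control; 5 = at least 90%; 4 = 70 to 90%; 3 = 50 to 70%; 2 = 30 to 50%; 1 = 10 to 30%; 0 = under 10%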
Summary of the method: as §1

Digitaria ciliaris (Di) = assay: Test Example 2: herbicidal effects by upland field soil treatment; conditions: 100 g of the active ingredient per 10 ares, evaluated on the 21st day after application;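 note: grade of growth control; 5 = at least 90%; 4 = 70 to 90%; 3 = 50 to 70%; 2 = 30 to 50%; 1 = 10 to 30%; 0 = under 10%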
Text: (§2) (Test on Herbicidal Effects by Upland Field Soil Treatment)

barnyardgrass (Ec) [2] = assay: as above; conditions: 100 g of the active ingredient per 10 ares, evaluated on the 21st day after application
Text: as §2

[3] = test system: common lambsquarters (Ch); assay: as above; conditions: 100 g of the active ingredient per 10 ares, evaluated on the 21st day after application
Text: as §2

pale smartweed (Po) [4] = assay: as above; conditions: 100 g of the active ingredient per 10 ares, evaluated on the 21st day after application
Text: as §2

rice flatsedge (Ci) [5] = assay: as above; conditions: 100 g of the active ingredient per 10 ares, evaluated on the 21st day after application
Text: as §2

slender amaranth (Am) [6] = assay: as above; conditions: 100 g of the active ingredient per 10 ares, evaluated on the 21st day after application
Text: as §2

Diaitaria ciliaris (Di) [7] = assay: Test Example 3: herbicidal effects by upland field foliage treatment; design: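 grade of growth control; 5 = at least 90%; 4 = 70 to 90%; 3 = 50 to 70%; 2 = 30 to 50%; 1 = 10 to 30%; 0 = under 10%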; conditions: 100 g active ingredient per 10 ares, evaluated 14th day after treatment
Summary of the method: (§3)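 Scoring used a standard effect scale on the 14th day post-treatment, with plants held in a greenhouse throughout. Foliar application was made to weeds raised from seed in sand-filled pots for 2 weeks.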

barnyardgrass (Ec) [8] = assay: as above; design: scale not given here; conditions: 100 g active ingredient per 10 ares, evaluated 14th day after treatment
Summary of the method: as §3

[9] = test system: common lambsquarters (Ch); assay: as above; design: scale not given here; conditions: 100 g active ingredient per 10 ares, evaluated 14th day after treatment
Summary of the method: as §3

pale smartweed (Po) [10] = assay: as above; design: scale not given here; conditions: 100 g active ingredient per 10 ares, evaluated 14th day after treatment
Summary of the method: as §3

rice flatsedge (Ci) [11] = assay: as above; design: scale not given here; conditions: 100 g active ingredient per 10 ares, evaluated 14th day after treatment
Summary of the method: as §3

slender amaranth (Am) [12] = assay: as above; design: scale not given here; conditions: 100 g active ingredient per 10 ares, evaluated 14th day after treatment
Summary of the method: as §3

cotton (Go) = assay: Test Example 4: crop plant selectivity by upland field soil treatment (cotton), phytotoxicity; design: scale not given here; conditions: evaluated 21st day after application
Summary of the method: (§4)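 Upland soil-treatment selectivity test: scoring on day 21 post-application in a greenhouse, rating crop phytotoxicity on cotton and herbicidal effect on co-sown weeds. Seeds were sown in sand-filled pots and covered with soil before treatment.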

Diaitaria ciliaris (Di) [13] = assay: Test Example 4: crop plant selectivity by upland field soil treatment (cotton), herbicidal effects; conditions: evaluated 21st day after application
Description: (§5) (Test on Crop Plant Selectivity by Upland Field Soil Treatment)
In a plastic pot (surface area: 600 cm^2) filled with sand, cotton (Go), Diaitaria ciliaris (Di), green foxtail (Se), pale smartweed (Po), slender amaranth (Am), common lambsquarters (Ch) and China jute (Ab) were sown and covered with soil. […] The plants were then cultured in a green house, and the evaluation of the herbicidal effects and phytotoxicity was conducted on the 21st day after the application in accordance with the standards as identified in Table 47. Symbol—represents “not tested”.

China jute (Ab) [14] = assay: as above; design: scale not given here; conditions: evaluated 21st day after application
Summary of the method: as §4

[15] = test system: common lambsquarters (Ch); assay: as above; design: scale not given here; conditions: evaluated 21st day after application
Summary of the method: as §4

green foxtail (Se) [16] = assay: as above; design: scale not given here; conditions: evaluated 21st day after application
Summary of the method: as §4

pale smartweed (Po) [17] = assay: as above; design: scale not given here; conditions: evaluated 21st day after application
Summary of the method: as §4

slender amaranth (Am) [18] = assay: as above; design: scale not given here; conditions: evaluated 21st day after application
Summary of the method: as §4

soybean (Gl) = assay: Test Example 6: crop plant selectivity by upland field soil treatment (soybean), phytotoxicity; design: scale not given here; conditions: dose 1.6 g ai/10a, 21st day after application
Summary of the method: (§6)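 Greenhouse pot test with soil-applied compound after sowing soybean and weeds in sand; effects graded on day 21 after application.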

Diaitaria ciliaris (Di) [19] = assay: Test Example 6: crop plant selectivity by upland field soil treatment (soybean), herbicidal effects; conditions: dose 1.6 g ai/10a, 21st day after application
Description: as §5
(§7) In a plastic pot (surface area: 600 cm^2) filled with sand, soybean (Gl), Diaitaria ciliaris (Di), green foxtail (Se), Johnsongrass (So), pale smartweed (Po), slender amaranth (Am), common lambsquarters (Ch) and China jute (Ab) were sown and covered with soil. […] The plants were then cultured in a green house, and the evaluation of the herbicidal effects and phytotoxicity was conducted on the 21st day after the application in accordance with the standards as identified in Table 47. Symbol—represents “not tested”.

Johnsongrass (So) = assay: as above; conditions: dose 1.6 g ai/10a, 21st day after application
Description: as §5, §7

China jute (Ab) [20] = assay: as above; design: scale not given here; conditions: dose 1.6 g ai/10a, 21st day after application
Summary of the method: as §6

[21] = test system: common lambsquarters (Ch); assay: as above; design: scale not given here; conditions: dose 1.6 g ai/10a, 21st day after application
Summary of the method: as §6

green foxtail (Se) [22] = assay: as above; design: scale not given here; conditions: dose 1.6 g ai/10a, 21st day after application
Summary of the method: as §6

pale smartweed (Po) [23] = assay: as above; design: scale not given here; conditions: dose 1.6 g ai/10a, 21st day after application
Summary of the method: as §6

slender amaranth (Am) [24] = assay: as above; design: scale not given here; conditions: dose 1.6 g ai/10a, 21st day after application
Summary of the method: as §6

CCc1cc2c(-c3cn(C)c(C(F)(F)F)cc3=O)c(F)cc(Cl)c2o1 [Compound 9-2]
Herbicidal effects Ec (barnyardgrass (Ec) [1]): 5
Herbicidal effects Sc (bulrush (Sc)): 5
Herbicidal effects Mo (monochoria (Mo)): 5
Herbicidal effects Di (Digitaria ciliaris (Di)): 5
Herbicidal effects Ec (barnyardgrass (Ec) [2]): 5
Herbicidal effects Ch [3]: 5
Herbicidal effects Po (pale smartweed (Po) [4]): 5
Herbicidal effects Ci (rice flatsedge (Ci) [5]): 5
Herbicidal effects Am (slender amaranth (Am) [6]): 5
Herbicidal effects Di (Diaitaria ciliaris (Di) [7]): 5
Herbicidal effects Ec (barnyardgrass (Ec) [8]): 5
Herbicidal effects Ch [9]: 5
Herbicidal effects Po (pale smartweed (Po) [10]): 5
Herbicidal effects Ci (rice flatsedge (Ci) [11]): 5
Herbicidal effects Am (slender amaranth (Am) [12]): 5
Phytotoxicity Go (cotton (Go); dose 1.6 g ai/10 a): 0
Phytotoxicity Go (cotton (Go); dose 6.3 g ai/10 a): 0
Herbicidal effects Di (Diaitaria ciliaris (Di) [13]; dose 1.6 g ai/10 a): 5
Herbicidal effects Di (Diaitaria ciliaris (Di) [13]; dose 6.3 g ai/10 a): 5
Herbicidal effects Ab (China jute (Ab) [14]; dose 1.6 g ai/10 a): 5
Herbicidal effects Ab (China jute (Ab) [14]; dose 6.3 g ai/10 a): 5
Herbicidal effects Ch ([15]; dose 1.6 g ai/10 a): 5
Herbicidal effects Ch ([15]; dose 6.3 g ai/10 a): 5
Herbicidal effects Se (green foxtail (Se) [16]; dose 1.6 g ai/10 a): 5
Herbicidal effects Se (green foxtail (Se) [16]; dose 6.3 g ai/10 a): 5
Herbicidal effects Po (pale smartweed (Po) [17]; dose 1.6 g ai/10 a): 5
Herbicidal effects Po (pale smartweed (Po) [17]; dose 6.3 g ai/10 a): 5
Herbicidal effects Am (slender amaranth (Am) [18]; dose 1.6 g ai/10 a): 5
Herbicidal effects Am (slender amaranth (Am) [18]; dose 6.3 g ai/10 a): 5
Phytotoxicity Gl (soybean (Gl)): 1
Herbicidal effects Di (Diaitaria ciliaris (Di) [19]): 5
Herbicidal effects So (Johnsongrass (So)): 5
Herbicidal effects Ab (China jute (Ab) [20]): 5
Herbicidal effects Ch [21]: 5
Herbicidal effects Se (green foxtail (Se) [22]): 5
Herbicidal effects Po (pale smartweed (Po) [23]): 5
Herbicidal effects Am (slender amaranth (Am) [24]): 5
